Measured values as given in publication PMC7725003, “Systematically Studying the Optimal Amino Acid Distribution Patterns of the Amphiphilic Structure by Using the Ultrashort Amphiphiles” (Frontiers in Microbiology, 2020).
Read-outs that look alike come from different tables or passages of the source. Where no end group is shown, it is not given here.

How the values were obtained:
[1] = test system: S. typhimurium 14028; format: cell-based, Salmonella typhimurium; settings: 14028, 24 h
Summary of the method: (§1)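 MIC = lowest peptide concentration giving 95% growth inhibition (A492) after 24 h at 37°C in MHB, inoculum 0.5–1 × 10^6 CFU mL^–1. Peptides serially diluted in 0.2% BSA. MBC = lowest concentration killing >99.9% of cells on overnight agar plating.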

[2] = test system: S. typhimurium 7731; format: cell-based, Salmonella typhimurium; settings: 7731, 24 h
Summary of the method: as §1

[3] = test system: E. coli 25922; assay: Time-kill kinetics; format: cell-based, Escherichia coli; settings: 1 × MIC concentration (Figure 5 legend: 1× MBC); mean of three independent experiments
Excerpt: The kinetics of the sterilization activity of the peptide was further evaluated. […] The results of the kinetic were the mean values of three independent experiments, and each independent experiment contained three technical replicates.

[4] = test system: S. aureus 29213; assay: Salt sensitivity assay (MIC); format: cell-based, Staphylococcus aureus; settings: for MIC, FeCl3: 4 μM FeCl3; for MIC, NH4Cl: 6 μM NH4Cl; for MIC, ZnCl2: 8 μM ZnCl2; for MIC, MgCl2: 1 mM MgCl2; for MIC, CaCl2: 2 mM CaCl2; for MIC, KCl: 4.5 mM KCl; for MIC, NaCl: 150 mM NaCl; for MIC, Control: no added salt, three independent assays
Summary of the method: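 Physiological salts (150 mM NaCl, 4.5 mM KCl, 6 μM NH4Cl, 8 μM ZnCl2, 1 mM MgCl2, 2mM CaCl2, 4 μM FeCl3) added to MHB. Bacteria at 0.5–1 × 10^6 CFU/mL exposed to serially diluted peptides for 24 h at 37°C. MIC read as lowest peptide concentration giving 95% growth inhibition by absorbance at 492 nm.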

[5] = test system: all of the tested bacterial strains; assay: Geometric mean of MICs, all tested bacterial strains; format: cell-based; settings: for GM, All: geometric mean of MICs across all tested strains; for TI, All: therapeutic index TI = MHC/GM MIC
Summary of the method: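 Per strain, MIC came from absorbance at 492 nm after 24 h at 37°C (≥95% inhibition), using mid-log inoculum of 0.5–1 × 10^6 CFU mL^–1 in MHB and peptide diluted in 0.2% BSA. MBC (>99.9% killed) came from overnight agar plating, and values are geometric means across strains.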

[6] = test system: Gram-positive bacteria; settings: for TI, Gram-positive bacteria: therapeutic index TI = MHC/GM MIC
Summary of the method: (§2)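 MIC is the lowest peptide concentration giving 95% growth inhibition, read at 492 nm after 24 h incubation at 37°C. Peptides were serially diluted in 0.2% BSA and added to mid-logarithmic cells at 0.5–1 × 10^6 CFU mL^–1 in MHB, following a modified NCCLS method, with more than 3 repeats.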

[7] = test system: Gram-negative bacteria; settings: for TI, Gram-negative bacteria: therapeutic index TI = MHC/GM MIC
Summary of the method: as §2

[8] = test system: S. epidermidis 12228; format: cell-based, Staphylococcus epidermidis; settings: 12228, 24 h
Summary of the method: as §1

[9] = LPS binding assay (BODIPY-TR-cadaverine displacement); parameters: species or system Escherichia coli; settings: 1 h 37°C
Protocol: A BODIPY-TR-cadaverine (BC Sigma, United States) displacement assay was used to determine the abilities of the peptides to bind LPS ([Ma et al., 2015]); in this assay, a probe bound to cell-free LPS was self-quenched but fluoresced upon release into solution. The LPS from E. coli O111:B4 (50 μg/mL) was incubated with a BODIPY-TR-cadaverine (5 μg/mL) in Tris buffer (50 mM, pH 7.4) for 4 h. Subsequently, equal volumes of the LPS-probe solution and the peptides (1–64 μM) were incubated in a sterile 96-well black plate for 1 h at 37°C, and the fluorescence was measured on a spectrofluorophotometer (the Infinite 200 pro, Tecan, China) at excitation and emission wavelengths of 580 nm and 620 nm, respectively. Each test was performed independently in triplicate. The values were converted to %ΔF (AU) using the following equation:
where Fobs is the observed fluorescence at a given peptide concentration, F0 is the initial fluorescence of BC with LPS in the absence of peptides, and F100 is the BC fluorescence with LPS cells upon the addition of 10 μg mL^–1 polymyxin B, a prototype LPS binder serving as the positive control.

[10] = test system: MRSA 43300; format: cell-based, methicillin-resistant S. aureus
Summary of the method: as §1

[11] = test system: P. aeruginosa ATCC 27853; format: cell-based, Pseudomonas aeruginosa; settings: after 30 sequential passages in sub-MBC concentrations
Protocol: Finally, P. aeruginosa ATCC 27853 was used as the model of the drug resistance study. […] The MBC values of the drugs against every two passage’s cells were tested. As a control, MBCs were also tested using cells that were serially passaged in fresh MHB without drugs. The assay was conducted independently in triplicate with three biological replicates.

[12] = test system: P. aeruginosa 27853; format: cell-based, Pseudomonas aeruginosa; settings: 27853, 24 h
Summary of the method: as §1

[13] = geometric mean of MICs (Table 3)

Row | Substance | MBC [1] [µM] | MIC [1] [µM] | MBC [2] [µM] | MIC [2] [µM] | time to obliterate the growth of 99.99% of bacteria [3] [min] | MIC, FeCl3 [4] [µM] | MIC, NH4Cl [4] [µM] | MIC, ZnCl2 [4] [µM] | MIC, MgCl2 [4] [µM] | MIC, CaCl2 [4] [µM] | MIC, KCl [4] [µM] | MIC, NaCl [4] [µM] | MIC, Control [4] [µM] | GM, All [5] [µM] | TI, All [5] | TI, Gram-positive bacteria [6] | TI, Gram-negative bacteria [7] | MBC [8] [µM] | MIC [8] [µM] | resistance development [11] | also measured
1 | RLRLRLRLL-NH2 [L5] | 8 | 4 | 8 | 4 | ≤ 3 | 8 | 8 | 8 | 8 | 16 | 8 | 64 | 8 | 4.18 | 61.24 | 43.10 | 80.76 | 16 | 8 | minimal | GM MIC ([6]; geometric mean of MICs, 7 Gram-positive strains (Table 2)): 5.94 µM; GM MIC ([7]; geometric mean of MICs, 9 Gram-negative strains (Table 2)): 3.17 µM; LPS binding efficiency ([9]; at 16 μM peptide): ~80%; MIC ([10]; MHB, 24 h 37°C, 95% growth inhibition): 8 µM; MBC ([10]; value in brackets, >99.9% of cells killed): 16 µM; MBC [12]: 16 µM; MIC [12]: 8 µM
2 | RWRWRWRWW-NH2 [W5] | 8 | 4 | 8 | 4 | ≤ 0.25 | 1 | 2 | 2 | 4 | 2 | 4 | 2 | 2 | 2.38 | 107.56 | 128.00 | 94.12 | 4 | 2 | minimal | GM, Gram-positive bacteria [6, 13]: 2.00 µM; GM, Gram-negative bacteria [7, 13]: 2.72 µM; LPS binding efficiency ([9]; at 32 μM peptide): ~80%; MBC ([10]; 43300, 24 h): 4 µM; MIC ([10]; 43300, 24 h): 2 µM; MBC [12]: 8 µM; MIC [12]: 4 µM
